Assay results published in article PMC7613998, “Development of selective inhibitors of phosphatidylinositol 3-kinase C2α” (Nature Chemical Biology, 2022).

Assays:
Assay in all cases: biochemical
Parameters in all cases: SelectScreen Z'-LYTE purified kinase panel, per cent inhibition, mean of two points
Conditions in all cases: (μM)=Km app
MET (cMet) = MET (cMet) (Homo sapiens, UniProt P08581)
MAPKAPK2 = MAPKAPK2 (Homo sapiens, UniProt P49137)
AKT2 (PKB beta) = AKT2 (PKB beta) (Homo sapiens, UniProt P31751)
AKT2 (PKB beta), sequence (P31751 whole entry): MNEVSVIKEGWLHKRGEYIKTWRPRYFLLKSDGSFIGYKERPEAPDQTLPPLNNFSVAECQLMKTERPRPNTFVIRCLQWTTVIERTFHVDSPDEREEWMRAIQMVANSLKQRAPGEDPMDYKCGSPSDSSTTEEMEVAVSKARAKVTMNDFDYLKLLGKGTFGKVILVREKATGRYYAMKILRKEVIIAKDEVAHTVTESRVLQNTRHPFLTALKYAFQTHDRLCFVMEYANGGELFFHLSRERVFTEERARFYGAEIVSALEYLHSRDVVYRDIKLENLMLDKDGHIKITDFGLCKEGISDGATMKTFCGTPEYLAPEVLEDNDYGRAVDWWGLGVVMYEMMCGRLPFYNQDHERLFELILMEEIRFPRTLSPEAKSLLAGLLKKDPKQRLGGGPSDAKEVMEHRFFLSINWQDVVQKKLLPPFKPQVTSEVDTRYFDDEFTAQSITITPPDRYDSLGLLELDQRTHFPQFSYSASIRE

ABL1 T315I = ABL1 T315I (Homo sapiens, UniProt P00519, T315I)
CSK = CSK (Homo sapiens, UniProt P41240)
CSK, sequence (P41240 whole entry): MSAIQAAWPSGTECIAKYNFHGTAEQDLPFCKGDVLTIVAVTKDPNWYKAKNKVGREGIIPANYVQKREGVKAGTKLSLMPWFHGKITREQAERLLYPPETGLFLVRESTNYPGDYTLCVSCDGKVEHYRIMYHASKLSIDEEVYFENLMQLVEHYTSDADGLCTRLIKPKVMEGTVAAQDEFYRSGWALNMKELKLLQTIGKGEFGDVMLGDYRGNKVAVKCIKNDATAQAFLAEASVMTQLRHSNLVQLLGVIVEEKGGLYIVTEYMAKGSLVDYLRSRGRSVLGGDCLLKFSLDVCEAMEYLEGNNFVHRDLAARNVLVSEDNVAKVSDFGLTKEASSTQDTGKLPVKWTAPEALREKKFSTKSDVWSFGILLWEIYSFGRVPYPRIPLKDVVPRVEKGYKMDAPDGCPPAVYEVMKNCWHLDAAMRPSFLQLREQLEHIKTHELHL

FLT3 = molecular target: T1, FLT3 (Homo sapiens, UniProt P36888)
T1 sequence (P36888 1-993): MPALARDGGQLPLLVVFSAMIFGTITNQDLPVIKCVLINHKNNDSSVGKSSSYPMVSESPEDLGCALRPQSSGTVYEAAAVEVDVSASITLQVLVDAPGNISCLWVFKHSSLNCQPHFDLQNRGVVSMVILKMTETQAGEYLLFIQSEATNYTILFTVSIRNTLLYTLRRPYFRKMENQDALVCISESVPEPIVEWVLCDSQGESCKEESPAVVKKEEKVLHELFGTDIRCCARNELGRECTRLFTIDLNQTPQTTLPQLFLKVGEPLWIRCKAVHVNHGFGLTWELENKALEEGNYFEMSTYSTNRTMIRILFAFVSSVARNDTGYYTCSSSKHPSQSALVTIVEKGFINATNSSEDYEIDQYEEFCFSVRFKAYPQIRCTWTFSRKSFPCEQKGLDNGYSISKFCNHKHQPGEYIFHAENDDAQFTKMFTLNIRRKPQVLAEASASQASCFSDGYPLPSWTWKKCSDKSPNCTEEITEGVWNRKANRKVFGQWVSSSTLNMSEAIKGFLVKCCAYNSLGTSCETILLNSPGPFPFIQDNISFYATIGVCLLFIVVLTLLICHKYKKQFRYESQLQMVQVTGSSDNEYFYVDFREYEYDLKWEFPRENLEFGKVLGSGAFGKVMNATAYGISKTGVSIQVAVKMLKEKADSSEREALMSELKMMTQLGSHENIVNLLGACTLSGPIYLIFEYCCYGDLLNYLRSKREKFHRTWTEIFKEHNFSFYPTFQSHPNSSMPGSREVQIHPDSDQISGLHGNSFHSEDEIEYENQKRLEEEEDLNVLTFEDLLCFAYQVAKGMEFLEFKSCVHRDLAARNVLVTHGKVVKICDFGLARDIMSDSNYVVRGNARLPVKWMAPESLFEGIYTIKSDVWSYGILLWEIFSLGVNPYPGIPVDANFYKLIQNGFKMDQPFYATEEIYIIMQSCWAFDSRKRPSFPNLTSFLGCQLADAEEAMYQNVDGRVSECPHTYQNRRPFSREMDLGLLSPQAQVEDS

IRAK4 = molecular target: T2, IRAK4 (Homo sapiens, UniProt Q9NWZ3)
T2 sequence (Q9NWZ3 1-460): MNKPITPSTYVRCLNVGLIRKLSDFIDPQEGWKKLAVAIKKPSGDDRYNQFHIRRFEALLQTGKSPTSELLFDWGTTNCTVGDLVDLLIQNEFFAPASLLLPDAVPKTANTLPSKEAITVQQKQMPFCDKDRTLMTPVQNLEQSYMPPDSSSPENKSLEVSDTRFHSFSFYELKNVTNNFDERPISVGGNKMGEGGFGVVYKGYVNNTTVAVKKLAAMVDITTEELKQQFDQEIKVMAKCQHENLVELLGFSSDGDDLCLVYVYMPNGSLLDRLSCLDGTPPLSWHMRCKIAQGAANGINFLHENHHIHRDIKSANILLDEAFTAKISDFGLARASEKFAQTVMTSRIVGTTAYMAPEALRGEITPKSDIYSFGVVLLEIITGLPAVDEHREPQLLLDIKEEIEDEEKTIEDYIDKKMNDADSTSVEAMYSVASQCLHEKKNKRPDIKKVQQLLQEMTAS

MARK3 = MARK3 (Homo sapiens, UniProt P27448)
MARK3, sequence (P27448 whole entry): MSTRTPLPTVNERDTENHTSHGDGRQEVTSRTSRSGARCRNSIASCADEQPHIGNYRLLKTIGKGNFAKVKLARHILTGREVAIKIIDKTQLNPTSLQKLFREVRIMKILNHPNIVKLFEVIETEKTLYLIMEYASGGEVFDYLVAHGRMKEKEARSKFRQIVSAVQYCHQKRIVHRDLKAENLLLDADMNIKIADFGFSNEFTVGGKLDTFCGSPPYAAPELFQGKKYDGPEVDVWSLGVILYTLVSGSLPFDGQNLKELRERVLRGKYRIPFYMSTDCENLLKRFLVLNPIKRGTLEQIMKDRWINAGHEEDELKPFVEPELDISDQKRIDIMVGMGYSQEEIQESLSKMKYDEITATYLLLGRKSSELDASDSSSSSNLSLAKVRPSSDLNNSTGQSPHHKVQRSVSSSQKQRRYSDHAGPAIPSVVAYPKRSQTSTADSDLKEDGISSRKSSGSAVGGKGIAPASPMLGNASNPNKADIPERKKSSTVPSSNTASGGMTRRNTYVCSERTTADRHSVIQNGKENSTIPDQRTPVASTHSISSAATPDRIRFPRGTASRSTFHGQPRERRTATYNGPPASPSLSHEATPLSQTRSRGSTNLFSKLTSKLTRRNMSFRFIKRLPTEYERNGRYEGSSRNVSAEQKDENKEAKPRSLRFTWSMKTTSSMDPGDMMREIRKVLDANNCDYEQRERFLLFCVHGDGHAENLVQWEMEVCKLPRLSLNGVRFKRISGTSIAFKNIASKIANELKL

EGFR (ErbB1) = EGFR (ErbB1) (Homo sapiens, UniProt P00533)
EGFR (ErbB1), sequence (P00533 whole entry): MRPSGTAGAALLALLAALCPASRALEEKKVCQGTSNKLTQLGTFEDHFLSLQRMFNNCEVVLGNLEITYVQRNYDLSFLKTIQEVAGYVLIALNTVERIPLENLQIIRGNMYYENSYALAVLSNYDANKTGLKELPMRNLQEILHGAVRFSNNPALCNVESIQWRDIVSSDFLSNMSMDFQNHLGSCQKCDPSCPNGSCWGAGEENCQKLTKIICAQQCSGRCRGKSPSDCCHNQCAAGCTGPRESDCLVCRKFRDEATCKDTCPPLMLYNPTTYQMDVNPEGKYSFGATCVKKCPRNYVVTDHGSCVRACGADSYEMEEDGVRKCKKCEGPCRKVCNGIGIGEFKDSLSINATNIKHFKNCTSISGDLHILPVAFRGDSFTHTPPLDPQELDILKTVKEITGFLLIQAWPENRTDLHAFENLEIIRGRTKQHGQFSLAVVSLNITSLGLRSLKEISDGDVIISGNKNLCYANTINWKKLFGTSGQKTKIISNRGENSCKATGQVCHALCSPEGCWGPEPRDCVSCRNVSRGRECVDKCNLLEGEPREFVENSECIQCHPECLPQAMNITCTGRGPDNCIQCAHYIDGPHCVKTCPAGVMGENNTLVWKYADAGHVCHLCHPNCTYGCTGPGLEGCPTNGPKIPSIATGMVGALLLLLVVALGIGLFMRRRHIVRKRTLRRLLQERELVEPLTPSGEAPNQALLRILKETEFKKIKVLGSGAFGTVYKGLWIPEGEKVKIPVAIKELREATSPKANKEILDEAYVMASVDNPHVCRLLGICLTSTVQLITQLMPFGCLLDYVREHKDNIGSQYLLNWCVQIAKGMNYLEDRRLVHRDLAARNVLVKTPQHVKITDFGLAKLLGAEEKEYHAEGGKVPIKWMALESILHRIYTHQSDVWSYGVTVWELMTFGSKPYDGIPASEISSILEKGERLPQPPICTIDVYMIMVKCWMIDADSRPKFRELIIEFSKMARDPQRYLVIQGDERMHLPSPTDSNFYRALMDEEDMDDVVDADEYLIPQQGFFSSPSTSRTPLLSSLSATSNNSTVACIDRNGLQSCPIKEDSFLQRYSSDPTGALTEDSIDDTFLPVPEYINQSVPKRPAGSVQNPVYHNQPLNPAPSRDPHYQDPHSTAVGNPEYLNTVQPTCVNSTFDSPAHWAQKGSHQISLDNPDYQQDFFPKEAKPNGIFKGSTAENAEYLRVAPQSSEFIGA

LYN A = molecular target: T3, LYN A (Homo sapiens, UniProt P07948)
T3 construct: isoform A
T3 sequence (P07948 whole entry, canonical isoform): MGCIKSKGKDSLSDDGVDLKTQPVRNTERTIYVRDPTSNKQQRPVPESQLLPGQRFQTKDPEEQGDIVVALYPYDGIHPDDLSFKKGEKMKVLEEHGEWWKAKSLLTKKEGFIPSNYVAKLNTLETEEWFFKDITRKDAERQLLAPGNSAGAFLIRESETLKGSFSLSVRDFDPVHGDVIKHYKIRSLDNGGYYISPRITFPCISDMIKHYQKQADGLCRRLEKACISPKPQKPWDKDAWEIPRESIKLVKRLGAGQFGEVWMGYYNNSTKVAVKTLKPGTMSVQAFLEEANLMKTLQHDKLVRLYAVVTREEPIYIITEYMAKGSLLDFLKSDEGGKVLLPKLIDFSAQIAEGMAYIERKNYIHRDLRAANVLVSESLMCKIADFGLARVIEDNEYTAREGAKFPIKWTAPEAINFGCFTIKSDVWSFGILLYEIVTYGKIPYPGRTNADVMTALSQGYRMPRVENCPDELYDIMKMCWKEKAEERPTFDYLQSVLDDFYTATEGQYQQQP

MET (cMet), sequence (P08581 whole entry): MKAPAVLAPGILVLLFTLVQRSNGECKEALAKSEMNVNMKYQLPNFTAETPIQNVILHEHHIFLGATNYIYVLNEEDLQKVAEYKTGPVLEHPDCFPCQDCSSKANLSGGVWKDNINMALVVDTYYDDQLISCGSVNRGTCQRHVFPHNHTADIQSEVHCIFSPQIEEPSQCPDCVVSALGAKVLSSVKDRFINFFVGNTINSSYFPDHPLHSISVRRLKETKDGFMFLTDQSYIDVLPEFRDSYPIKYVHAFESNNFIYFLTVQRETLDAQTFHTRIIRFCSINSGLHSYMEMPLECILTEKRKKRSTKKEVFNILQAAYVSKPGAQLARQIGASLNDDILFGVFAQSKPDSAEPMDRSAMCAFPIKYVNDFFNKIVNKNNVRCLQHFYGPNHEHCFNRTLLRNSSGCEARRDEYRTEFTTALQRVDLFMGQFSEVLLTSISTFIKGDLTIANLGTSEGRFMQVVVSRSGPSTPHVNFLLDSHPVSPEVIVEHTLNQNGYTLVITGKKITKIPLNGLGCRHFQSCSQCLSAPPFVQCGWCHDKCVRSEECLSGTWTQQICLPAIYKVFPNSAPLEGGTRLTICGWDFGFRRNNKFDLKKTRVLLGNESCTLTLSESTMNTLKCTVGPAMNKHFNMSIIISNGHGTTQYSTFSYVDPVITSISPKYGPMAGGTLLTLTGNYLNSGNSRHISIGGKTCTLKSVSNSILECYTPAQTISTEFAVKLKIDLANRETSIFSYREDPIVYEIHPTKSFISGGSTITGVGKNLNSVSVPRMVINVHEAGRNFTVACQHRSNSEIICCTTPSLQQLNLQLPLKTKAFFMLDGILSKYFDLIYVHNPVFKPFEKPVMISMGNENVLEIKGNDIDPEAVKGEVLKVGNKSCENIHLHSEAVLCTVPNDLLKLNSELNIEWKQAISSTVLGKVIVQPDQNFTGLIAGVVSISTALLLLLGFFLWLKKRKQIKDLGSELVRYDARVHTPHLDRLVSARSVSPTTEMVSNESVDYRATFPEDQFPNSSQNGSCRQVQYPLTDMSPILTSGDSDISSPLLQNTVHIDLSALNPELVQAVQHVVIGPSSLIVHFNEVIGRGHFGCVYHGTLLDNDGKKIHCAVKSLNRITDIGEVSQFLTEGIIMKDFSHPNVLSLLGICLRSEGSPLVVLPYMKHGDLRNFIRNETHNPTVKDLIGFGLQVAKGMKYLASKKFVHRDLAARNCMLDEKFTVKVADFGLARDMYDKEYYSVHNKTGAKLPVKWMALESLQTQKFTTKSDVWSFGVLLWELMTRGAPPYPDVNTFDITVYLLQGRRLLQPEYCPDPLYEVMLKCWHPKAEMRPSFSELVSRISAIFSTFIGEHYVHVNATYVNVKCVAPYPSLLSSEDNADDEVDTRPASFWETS

| Compound | inhibition at 1 µM (MET (cMet)) [%] | inhibition at 3 µM (MET (cMet)) [%] | inhibition at 10 µM (MET (cMet)) [%] | inhibition at 1 µM (MAPKAPK2) [%] | inhibition at 3 µM (MAPKAPK2) [%] | inhibition at 10 µM (MAPKAPK2) [%] | inhibition at 1 µM (AKT2 (PKB beta)) [%] | inhibition at 3 µM (AKT2 (PKB beta)) [%] | inhibition at 10 µM (AKT2 (PKB beta)) [%] | inhibition at 1 µM (ABL1 T315I) [%] | inhibition at 3 µM (ABL1 T315I) [%] | inhibition at 10 µM (ABL1 T315I) [%] | inhibition at 1 µM (CSK) [%] | inhibition at 3 µM (CSK) [%] | inhibition at 10 µM (CSK) [%] | inhibition at 1 µM (FLT3) [%] | inhibition at 3 µM (FLT3) [%] | inhibition at 10 µM (FLT3) [%] | inhibition at 1 µM (IRAK4) [%] | inhibition at 3 µM (IRAK4) [%] | other results |
| --- | --- | --- | --- | --- | --- | --- | --- | --- | --- | --- | --- | --- | --- | --- | --- | --- | --- | --- | --- | --- | --- |
| O=C(CSc1nc2nccnc2c(=O)n1CCc1ccccc1)Nc1nccs1 [compound 1, PITCOIN1] | 4.52 | -1.8 | 1.23 | 4.27 | 5.91 | 1.1 | 4.3 | 3.38 | 4.53 | -2.1 | -3.21 | -2.35 | 3.79 | 4.7 | 4.31 | 9.16 | 8.82 | 8.33 | 10.7 | 2.87 | inhibition at 10 µM (IRAK4): 6.89%; inhibition at 1 µM (MARK3): 2.69%; inhibition at 3 µM (MARK3): 11.3%; inhibition at 10 µM (MARK3): 0.672%; inhibition at 1 µM (EGFR (ErbB1)): 2.09%; inhibition at 3 µM (EGFR (ErbB1)): 1.39%; inhibition at 10 µM (EGFR (ErbB1)): -0.671%; inhibition at 1 µM (LYN A): 2.62%; inhibition at 3 µM (LYN A): 1.7%; inhibition at 10 µM (LYN A): 2.95% |
| CS(=O)(=O)Nc1cccc(-c2csc(NC(=O)CSc3nc4nccnc4c(=O)n3CCc3ccccc3)n2)c1 [compound 3, PITCOIN3] | 4.73 | 8.1 | -2.17 | 0.509 | 3.08 | 6.37 | 6.93 | 6.2 | 4.52 | 1.95 | 3.78 | 2.19 | 9.48 | 7.4 | 6.13 | 12.3 | 11 | 12.7 | 15.2 | 4.2 | inhibition at 10 µM (IRAK4): 9.92%; inhibition at 1 µM (MARK3): 1.74%; inhibition at 3 µM (MARK3): 4.94%; inhibition at 10 µM (MARK3): 6.84%; inhibition at 1 µM (EGFR (ErbB1)): -2.95%; inhibition at 3 µM (EGFR (ErbB1)): 6.63%; inhibition at 10 µM (EGFR (ErbB1)): 0.555%; inhibition at 1 µM (LYN A): 1.87%; inhibition at 3 µM (LYN A): 2.86%; inhibition at 10 µM (LYN A): 1.59% |
